# Measurements published in the supplement of paper PMC10307832.
# Compound: Cc1ccc2nc(NCCN)c3ncc(C)n3c2c1 + C[C@@H](Oc1cc(-c2cnn(C3CCNCC3)c2)cnc1N)c1c(Cl)ccc(F)c1Cl [Crizotinib] (partner 1 µM)
# Experiment: relative viability (nuclei count vs DMSO), 5 days (fraction); higher = more cells survive
# Conditions: first compound 4 µM
# In short: (§1)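 The day after seeding in 1536-well plates, lung cancer cell lines were treated by pin tool with a single drug, or with a fixed anchor-drug dose together with five library-drug doses (not always all listed) in √10 steps. After 5 days, a combined fix-and-stain solution (final 0.05% Triton X-100, 1% formaldehyde, 1 ug/ml Hoechst) was added. Nuclei counted on 4× images gave relative viability as treated counts over vehicle counts, reported as the median of duplicate plates.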
row,Cell Line,relative viability
1,ChaGo-K-1,0.922
2,A549,0.485
3,NCI-H441,0.947
4,NCI-H1299,0.659

# Compound: Cc1ccc2nc(NCCN)c3ncc(C)n3c2c1 + CS(=O)(=O)CCNCc1ccc(-c2ccc3ncnc(Nc4ccc(OCc5cccc(F)c5)c(Cl)c4)c3c2)o1 [Lapatinib] (partner 2 µM)
# Experiment: as above
# Conditions: first compound 0.04 µM
# In short: as §1
row,Cell Line,relative viability
1,NCI-H727,1.22
2,NCI-H1650,0.887
3,EBC-1,0.207
4,NCI-H1703,1.15
5,NCI-H1993,0.844
6,SW 1573,1.07
7,NCI-H838,1.08
8,NCI-H520,0.964
9,NCI-H2126,0.793
10,EMC-BAC-2,0.915
11,NCI-H2085,0.91
12,Calu-6,1.09
13,HCC-366,1.14
14,NCI-H1666,0.788
15,NCI-H596,1.12
16,LK-2,0.961
17,NCI-H2087,1.25
18,NCI-H358,0.549
19,NCI-H2170,0.307
20,H3255,0.275
21,IA-LM,1.02
22,NCI-H1793,0.942
23,A549,1.23
24,NCI-H1395,0.936
25,NCI-H1299,0.957

# Same assay, conditions: first compound 0.1265 µM
row,Cell Line,relative viability
1,NCI-H727,0.887
2,NCI-H1650,0.764
3,EBC-1,0.201
4,NCI-H1703,0.958
5,NCI-H1993,0.887
6,SW 1573,1.1
7,NCI-H838,1.01
8,NCI-H520,0.853
9,NCI-H2126,0.783
10,EMC-BAC-2,0.875
11,NCI-H2085,0.771
12,Calu-6,1.03
13,HCC-366,0.91
14,NCI-H1666,0.64
15,NCI-H596,1.11
16,LK-2,0.879
17,NCI-H2087,1.14
18,NCI-H358,0.486
19,NCI-H2170,0.263
20,H3255,0.268
21,IA-LM,0.833
22,NCI-H1793,0.697
23,A549,0.941
24,NCI-H1395,0.917
25,NCI-H1299,0.935

# Same assay, conditions: first compound 0.4 µM
row,Cell Line,relative viability
1,NCI-H727,1.19
2,NCI-H1650,0.434
3,EBC-1,0.233
4,NCI-H1703,1.03
5,NCI-H1993,0.695
6,SW 1573,1.19
7,NCI-H838,0.919
8,NCI-H520,0.866
9,NCI-H2126,0.765
10,EMC-BAC-2,0.847
11,NCI-H2085,0.728
12,Calu-6,1.07
13,HCC-366,1.11
14,NCI-H1666,0.505
15,NCI-H596,1.31
16,LK-2,0.823
17,NCI-H2087,1.16
18,NCI-H358,0.434
19,NCI-H2170,0.249
20,H3255,0.398
21,IA-LM,0.581
22,NCI-H1793,0.734
23,A549,0.918
24,NCI-H1395,0.958
25,NCI-H1299,0.954

# Same assay, conditions: first compound 1.265 µM
row,Cell Line,relative viability
1,NCI-H727,0.766
2,NCI-H1650,0.836
3,EBC-1,0.179
4,NCI-H1703,1.19
5,NCI-H1993,0.74
6,SW 1573,1.42
7,NCI-H838,0.974
8,NCI-H520,0.837
9,NCI-H2126,0.791
10,EMC-BAC-2,0.918
11,NCI-H2085,0.785
12,Calu-6,1.07
13,HCC-366,1.07
14,NCI-H1666,0.478
15,NCI-H596,0.962
16,LK-2,0.748
17,NCI-H2087,1.08
18,NCI-H358,0.508
19,NCI-H2170,0.302
20,H3255,0.252
21,IA-LM,1
22,NCI-H1793,0.581
23,A549,1
24,NCI-H1395,0.994
25,NCI-H1299,0.911

# Same assay, conditions: first compound 4 µM
row,Cell Line,relative viability
1,NCI-H727,0.762
2,NCI-H1650,0.65
3,EBC-1,0.191
4,NCI-H1703,0.997
5,NCI-H1993,0.629
6,SW 1573,0.954
7,NCI-H838,0.837
8,NCI-H520,0.729
9,NCI-H2126,0.593
10,EMC-BAC-2,0.851
11,NCI-H2085,0.817
12,Calu-6,0.737
13,HCC-366,0.998
14,NCI-H1666,0.568
15,NCI-H596,1.05
16,LK-2,0.761
17,NCI-H2087,1.07
18,NCI-H358,0.511
19,NCI-H2170,0.26
20,H3255,0.283
21,IA-LM,0.7
22,NCI-H1793,0.737
23,A549,0.83
24,NCI-H1395,0.803
25,NCI-H1299,0.809
